Earlier results, collected in patent publication US20260076921A1, “Transdermal Pharmaceutical Formulations for the Treatment of Multiple Sclerosis” (Pike Therapeutics Inc., priority 2020, published 2026).
Where “and” joins values, the source holds several entries; their conditions need not be identical. Equal entries are not always repeated.

Tests used:
[1] = 6.2 mg/day dose
[2] = literature ranges

| Structure (SMILES) | effect on knee-joint swelling [1] | Oral bioavailability [2] | Ki (CB1) [nM] |
| --- | --- | --- | --- |
| C=C(C)[C@@H]1CCC(C)=C[C@H]1c1c(O)cc(CCCCC)cc1O [CBD, 2-[(1R,6R)-6-isopropenyl-3-methylcyclohex-2-en-1-yl]-5-pentylbenzene-1,3-diol] | very effective to reduce knee-joint swelling | 13-19% and 5-6% |  |
| CCCCCn1cc(C(=O)c2ccc(Cl)c3ccccc23)c2ccccc21 [JWH-398] |  |  | 2.3 |
| CCCCCn1cc(C(=O)c2cccc3cccc(Br)c23)c2ccccc21 [JWH-424] |  |  | 20.9 |
| CCCCC/C=C\C/C=C\C/C=C\C/C=C\CCCC(=O)N[C@H](C)CO [Methanandamide] |  |  | 17.9 |
